Assay results: patent US4761405A, “Antagonists of specific excitatory amino acid neurotransmitter receptors having increased potency” (priority 1987, dated 1988)
Several values for one entry are separate records, joined by “and”; a condition that tells them apart may be missing. Identical values can stand only once. Entries after “also recorded” stand apart in the source; their conditions may differ. Like-named read-outs stand apart in the source and are kept apart here.

Legend:
[1] = test system: NMDA receptors (rat forebrain membranes); assay: In vitro receptor binding: inhibition of specific [3H]CPP binding; details: for Inhibition of [3H]CPP binding / interaction with NMDA-type receptors, in words: 50 μM; for Percent inhibition of specific ligand binding, [3H]CPP: 50 μM compound, 8 nM ligand, pH 7.4, 30 min, 23° C., mean ± S.E.M. of three determinations
Experimental: (§1) The potency of the compound described in example IV to inhibit the specific binding of various EAA ligands to rat forebrain membranes was examined using standard in vitro binding techniques. Specifically, example IV was evaluated for potency to inhibit the specific binding of [^3 H]kainic acid ([^3 H]KA),[^3 H]RS-α-amino-3-hydroxy-5-methyl-4-isoxazole propionic acid([^3 H]AMPA) and [^3 H]3-(2-carboxypiperazin-4-yl) propyl-1-phosphonic acid([^3 H]CPP) to KA, QUIS and NMDA receptors, respectively.
(§2) Methods were as follows: rat forebrain membranes were prepared as described by Enna and Synder [Mol. Pharmacology, 13, 422-453 (1977)] and the "buffy coat" preparation was washed three additional times by centrifugation (45,000 g; 10 min; 4° C.) with intermittent resuspensions (20 vol; w/v) in fresh buffer (Tris HCl; 0.05M; pH 7.4; 23° C.). Following the final wash, pellets were stored frozen (-20° C.) until used.
(§3) On the day of assay, pellets were thawed to room temperature, resuspended in buffer (Tris HCl; 0.05 M; various pH; 23° C.) and washed three additional times by centrifugation as described in the preceeding paragraph. For assay, the washed tissue was resuspended in buffer at a concentration of 10 mg/mL. All procedures were performed using triplicate incubations in a final volume of 2 mL which consisted of the tissue suspension (1 mL), ligand, the compound(s) of interest and 1 mL of buffer. In every instance, Glu (10^-3 M) was used to determine nonspecific binding. Assays were terminated by centrifugation (45,000 g; 10 min; 4° C.), the pellet was washed rapidly and superficially with 2×2.5 mL of ice-cold buffer and dissolved in 1 mL of Protosol® (New England Nuclear, Boston, Mass.). Following the addition of 6 mL of Econfluor® (New England Nuclear, Boston, Mass.) radioactivity was determined using conventional liquid scintillation spectrophotometry.
Specific binding of [^ 3H]CPP (S.A.=27 Ci/mmol, New England Nuclear, Boston, Mass.) was examined using a modification of the method of Murphy et al., [(J. Pharmacol. Exp. therap., (in press)] using Tris HCl buffer (pH 7.4). Incubations were conducted for 30 min at 23° C. using a final ligand concentration of 8 nM.
(§4) All assays were performed on three separate occassions. Appropriate reference compounds were evaluated in each assay and experiment using parallel incubations. All compounds were examined at a single concentration (50 uM) and activity was expressed as the percent inhibition of specific binding of each ligand.
(§5) Method(s) have been described in the text. Values shown are the means ±S.E.M. of three separate determinations performed using triplicate incubations and are expressed as the percent inhibition of specifically bound ligand. All drugs were tested at a single concentration of 50 μM.

[2] = test system: QUIS receptors (rat forebrain membranes); assay: In vitro receptor binding: inhibition of specific [3H]AMPA binding; details: for Inhibition of [3H]AMPA binding, in words: 50 μM; for Percent inhibition of specific ligand binding, [3H]AMPA: 50 μM compound, 4 nM ligand, pH 6.9, 100 mM KSCN, 60 min, 4° C., mean ± S.E.M. of three determinations
Experimental: as §1, §2, §3
Specific [^3 H]AMPA (S.A.=27.5 Ci/mmol, New England Nuclear, Boston, Mass.) binding was examined according to the method of Murphy et al., [(Soc. Neurosci. Abs., 11, 109, (1985)] using Tris HCl buffer (pH 6.9) supplemented with 100 mM KSCN. Incubations were conducted for 60 min at 4° C. using a final ligand concentration of 4 nM.
as §4, §5

[3] = test system: KA receptors (rat forebrain membranes); assay: In vitro receptor binding: inhibition of specific [3H]KA binding; details: for Percent inhibition of specific ligand binding, [3H]KA: 50 μM compound, 2 nM ligand, pH 7.4, 90 min, 2° C., mean ± S.E.M. of three determinations
Experimental: as §1, §2, §3
Specific binding of [^3 H]KA (S.A.=60 Ci/mmol, New England Nuclear, Boston, Mass.) was examined according to the method of London and Coyl [(Mol. Pharmacol., 15, 492-505 (1979)] using Tris HCl buffer (pH 7.4). Incubations were conducted for 90 min at 2° C. using a final ligand concentration of 2 nM.
as §4, §5

[4] = test system: pentylenetetrazol (PTZ)-induced seizures; assay: Protection against pentylenetetrazol (PTZ)-induced seizures; assay type: in vivo, male CF-1 mice
Experimental: The anticonvulsant properties of example IV and of the reference compound DL(±)AP7 against seizures induced by subcutaneous (s.c.) injection of pentylenetetrazol (PTZ) were evaluated using mice.
For testing, PTZ was dissolved in saline (0.9%; w/v) and administered to male CF-1 mice (Charles Rivers: 20-25 g) at a dose of 90 mg/kg (s.c.) fifteen minutes (ICV) or thirty minutes (IP) after the administration of the test compounds. Example IV and the reference compound were dissolved in sline and administered in a final volume of 5 μL (ICV) or 200 μL (IP). […] Presence of seizures was defined as one or more episodes of clonic activity having a duration of five seconds or greater. Following preliminary dose-ranging studies, dose-response curves were generated using at least five different doses of each compound with eight animals at each dose. The dose of drug required to protect fifty percent (ED50) of the test animals from PTZ-induced seizures was calculated using log-logit analysis. Ninety-five percent confidence intervals (CL95) were calculated using the method of Litchfield and Wilcoxon [J. Pharmacol. Exp. Therap., 96, 99-113 (1949)].
(§6) Method(s) have been described in the text. Where ED50 's are shown,
(§7) *Where ninetyfive percent confidence limits are not shown, the values

[5] = test system: maximal electroshock (MES)-induced seizures; assay: Protection against maximal electroshock (MES)-induced seizures; assay type: in vivo, male CF-1 mice; details: for ED50: Mus musculus, 0.5 h, ip, 30 min prior; for ED50 / ED50, maximal electroshock, icv: 50 mA, 0.2 s; for ED50, maximal electroshock, icv: 15 min prior
Experimental: The anticonvulsant properties of example IV and of the reference compound DL(±)AP7 against seizures induced by maximal electroshock (MES) were evaluated using mice.
For testing, electrodes were clipped to the ears of male CF-1 mice (20-25 g; Charles Rivers) and a current of 50 mA was delivered for 0.2 seconds to produce seizures. Drugs were dissolved in saline (0.9%; w/v) and administered fifteen minutes (ICV) or thirty minutes (IP) prior to testing. Injection protocols and group size were identicl to those described in example VI. […] Seizures were scored as being present or absent. Data was calculated as described in example VI.
as §6, §7

[6] = test system: cultured rat hippocampal neurones; details: cited from earlier work
[7] = icv, 15 min before PTZ 90 mg/kg s.c.
[8] = ">" = maximum dose tested, no animals protected, read-out: ED50, maximal electroshock, ip (mg/kg)
[9] = ">" = maximum dose tested, no animals protected, read-out: ED50, maximal electroshock, ip (mmol/kg)
[10] = ">" = maximum dose tested, no animals protected
[11] = Mus musculus, ip, 30 min before PTZ 90 mg/kg s.c.; ">" = maximum dose tested, no animals protected

Compound | Inhibition of [3H]CPP binding / interaction with NMDA-type receptors, in words [1] | Percent inhibition of specific ligand binding, [3H]CPP [1] | Inhibition of [3H]AMPA binding, in words [2] | Percent inhibition of specific ligand binding, [3H]AMPA [2] | Percent inhibition of specific ligand binding, [3H]KA [3] | ED50, pentylenetetrazol, icv (nmoles) [4, 7] | ED50, pentylenetetrazol, icv (ug) [4, 7] | ED50, maximal electroshock, icv [5, 10] | other results
Cc1onc(O)c1CC(N)C(=O)O (racemic) [AMPA, RS-α-amino-3-hydroxy-5-methyl-4-isoxazole propionic acid] | without appreciable activity | 7 ± 4% | most potent inhibitors of binding | 100 ± 0% | 64 ± 4% | – | – | – | –
NC(CCCCCP(=O)(O)O)C(=O)O (racemic) [DL(±)AP7] | – | – | – | – | – | 6.8 nmol | 1.37 µg | 6.8 µg and 7.3 µg | ED50 ([4]; Mus musculus; ip, 30 min before PTZ 90 mg/kg s.c.): 780 to 880 µmol/kg; ED50 ([4]; Mus musculus; ip, 30 min before PTZ 90 mg/kg s.c.; ">" = maximum dose tested, no animals protected): 176 to 199 mg/kg; Attenuation of MES-induced seizure activity, in words ([5]; ICV): dose-dependent protection; ED50 [5, 8]: 127 to 170 mg/kg; ED50 [5, 9]: 0.56 to 0.76 mmol/kg; ED50, maximal electroshock, icv [5]: 29 nmol and 34 nmol
NC(CCC1CCCCC1CP(=O)(O)O)C(=O)O (stereo not shown) [4-(2-phosphonomethyl)cyclohexyl-2-aminobutyric acid] | high affinity and selectivity | – | – | – | – | – | – | – | Anticonvulsant activity in PTZ seizure model, in words ([4]; mice): provide protection in pentylenetetrazol (PTZ) induced seizures
N[C@H](CCCP(=O)(O)O)C(=O)O [D(-)AP5, D(-)-2-amino-5-phosphonopentanoic acid] | – | 95 ± 4% | – | 3 ± 2% | 22 ± 1% | – | – | – | –
N[C@H](CCCCCP(=O)(O)O)C(=O)O [D(-)AP7, D(-)-2-amino-7-phosphonoheptanoic acid] | – | 100 ± 0% | – | 7 ± 5% | 17 ± 2% | – | – | – | –
NC(CC1CCCCC1CCP(=O)(O)O)C(=O)O (stereo not shown) [Example IV, 2-amino-4.5-(1,2-cyclohexyl)-7-phosphonoheptanoic acid] | interacts, albeit with moderate affinity, in a highly specific manner with NMDA-type receptors | 33 ± 9% | without appreciable activity | 1 ± 1% | 9 ± 4% | 0.14 nmol and 0.19 nmol | 0.04 µg and 0.06 µg | 90 µg | fold more potent than DL(±)AP7 to prevent PTZ-induced seizures, ICV ([4]; ICV, vs DL(±)AP7): 30-40 fold; fold more potent than DL(±)AP7 to prevent PTZ-induced seizures, IP ([4]; IP, vs DL(±)AP7): approximately 2 fold; ED50 ([4]; Mus musculus, ip, 30 min before PTZ 90 mg/kg s.c.): 310 µmol/kg; ED50 [4, 11]: 90 mg/kg; ED50, pentylenetetrazol, ip ([4]; ip, 30 min before PTZ 90 mg/kg s.c.): 0.47 mmol/kg; ED50, pentylenetetrazol, ip ([4]; ip, 30 min before PTZ 90 mg/kg s.c.; ">" = maximum dose tested, no animals protected): 134 mg/kg; Anticonvulsant activity in PTZ seizure model, in words ([4]; mice): potent, novel and systemically active anticonvulsant agent; Anticonvulsant activity in PTZ seizure model, in words ([4]; mice; listed as 3-(2-phosphonoethyl)cyclohexyl-2-aminopropionic acid): provide protection in pentylenetetrazol (PTZ) induced seizures; Inhibition of [3H]CPP binding / interaction with NMDA-type receptors, in words ([1]; listed as 3-(2-phosphonoethyl)cyclohexyl-2-aminopropionic acid): high affinity and selectivity; Inhibition of [3H]KA binding, in words ([3]; 50 μM): least active; Attenuation of MES-induced seizure activity, in words ([5]; ICV): moderately potent; also recorded: relative lack of potency; fold less potent as an anticonvulsant in MES compared to its activity in the PTZ seizure model ([5]; ICV, MES vs PTZ): 360 fold; fold less potent than DL(±)AP7 as an anticonvulsant in the MES test ([5]; ICV, vs DL(±)AP7): approximately 11 fold; Prevention of MES-induced seizures on systemic administration ([5]; IP, up to 350 mg/kg, n=6): failed to prevent MES-induced seizures in any animal; ED50 [5, 8]: > 350 mg/kg; ED50 [5, 9]: > 1.2 mmol/kg; ED50, maximal electroshock, icv [5]: 314 nmol
NC(Cc1ccccc1CCP(=O)(O)O)C(=O)O (stereo not shown) [III, 2-Amino-4,5-benzo-7-phosphonoheptanoic acid] | – | – | – | – | – | 44 nmol | 3.2 µg | > 100 µg | ED50 [4, 11]: > 350 mg/kg
C=C(C)[C@H]1CN[C@H](C(=O)O)[C@H]1CC(=O)O [KA, kainic acid] | without appreciable activity | 3 ± 2% | moderate activity | 56 ± 5% | 100 ± 0% | – | – | – | –
δ-D-glutamyl glycine | – | – | – | – | – | – | – | – | Effect on toxicity of exogenously applied Glu and Asp ([6]; exogenously applied Glu and Asp): blocking the toxicity of exogenously applied Glu and Asp; Protection of neurones from degeneration ([6]; oxygen depletion): protect cultured rat hippocampal neurones from degeneration
